Where a name gives a salt, the structure may show the parent alone.

System in one series: not given
Assay: not given
The settings on record: background art; cited from earlier work.
On to `O=C(O)C1CCCNC1` (stereo not drawn) [nipecotic acid, piperidine-3-carboxylic acid], for which the “ability to cross the blood-brain barrier” value was “unable to cross the blood-brain barrier”.

The subject of a further series is [^3 H]-GABA uptake. Description: Inhibition of [^3 H]-GABA uptake in vitro (Male Wistar rat cortical tissue homogenate). Format: biochemical. The settings on record: tris HCl buffer pH 7.5, 60 min at 30° C. As to the method: Values for in vitro inhibition of [^3 H]-GABA uptake for these compounds were assessed essentially by the method of Fjalland (Acta Pharmacol.Toxicol. 42 (1978) 73-76). Male Wistar rat cortical tissue was gently homogenized by hand using a glass/PTFE homogenizer in 10 volumes of 0.32 M sucrose. Incubation was performed in a 40 mM tris HCl buffer (pH 7.5 at 30° C.) containing […], […], 4 mM MgSO4, 2.3 mM CaCl2 and 10 mM glucose, for 60 min. at 30° C.) Values for inhibition of GABA uptake for some representative compounds are recorded in Table I.
Consider `O=C(O)[C@@H]1CCCN(CCOCCN(c2ccccc2)c2ccccc2)C1` [Example 2, (R)-N-(2-(2-(Diphenylamino)ethoxy)ethyl)-3-piperidinecarboxylic acid hydrochloride], for which inhibition was half-maximal at 108 nM (IC50).
Still for that read-out and setting: next, `O=C(O)[C@@H]1CCCN(CCCCCCN(c2ccccc2)c2ccccc2)C1` [Example 4, (R)-N-(6-(Diphenylamino)-1-hexyl)-3-piperidinecarboxylic acid hydrochloride]: 670 nM.
On the same count and under the same terms, under `O=C(O)[C@@H]1CCCN(CCCCCCCN(c2ccccc2)c2ccccc2)C1` [Example 8, (R)-N-(7-(Diphenylamino)-1-heptyl)-3-piperidinecarboxylic acid hydrochloride] stands 222 nM; under `O=C(O)[C@@H]1CCCN(CCOCCC(c2ccccc2)c2ccccc2)C1` [Example 14, (R)-N-(2-(3,3-Diphenyl-1-propyloxy)ethyl)-3-piperidinecarboxylic acid hydrochloride], 51 nM; under `O=C(O)C1=CCCN(CCOCCC(c2ccccc2)c2ccccc2)C1` [Example 16, N-(2-(3,3-Diphenyl-1-propyloxy)ethyl)-1,2,5,6-tetrahydro-3-pyridinecarboxylic acid hydrochloride], 49 nM.
Still for that read-out and setting: next, `O=C(O)[C@@H]1CCCN(CCOCCC(c2ccccc2)c2cccc(C(F)(F)F)c2)C1` (stereo partly drawn) [Example 18, (R)-N-(2-(3-Phenyl-3-(3-(trifluoromethyl)phenyl)-1-propyloxy)ethyl)-3-piperidinecarboxylic acid hydrochloride]: 43 nM.

A further series relates to GABA uptake.
Assay: not given
The settings on record: Yunger, L. M. et al., J. Pharm. Exp. Therap. 228 (1984) 109; cited from earlier work.
Take `O=C(O)C1CCCN(CCC=C(c2ccccc2)c2ccccc2)C1` (stereo not drawn) [SK&F 89976A, N-(4,4-diphenyl-3-buten-1-yl)nipecotic acid]: the “inhibition of GABA uptake, oral activity” value is listed as “orally active inhibitors of GABA uptake”.
For `O=C(O)C1=CCCN(CCC=C(c2ccccc2)c2ccccc2)C1` [SK&F 100330A, N-(4,4-diphenyl-3-buten-1-yl)guvacine], the “inhibition of GABA uptake, oral activity” value is listed as “orally active inhibitors of GABA uptake”.
As for `O=C(O)CC1CCN(CCC=C(c2ccccc2)c2ccccc2)C1` (stereo not drawn) [SK&F 100561, N-(4,4-diphenyl-3-buten-1-yl)homo-β-proline], the “inhibition of GABA uptake, oral activity” value is reported as “orally active inhibitors of GABA uptake”.
For the compound `O=C(O)C1CCCN(CCC=C(c2ccccc2)c2cccs2)C1` (stereo not drawn) [SK&F 100604J, N-(4-phenyl-4-(2-thienyl)-3-buten-1-yl)nipecotic acid], the “inhibition of GABA uptake, oral activity” value is listed as “orally active inhibitors of GABA uptake”.

The series is the same for the next values; noted with them: background art; cited from earlier work.
As to `O=C(O)C1CCCNC1` (stereo not drawn) [nipecotic acid, piperidine-3-carboxylic acid], the “inhibitor of GABA uptake from the synaptic cleft into presynaptic nerve terminals and glial cells” value is “well-known and potent inhibitor of GABA uptake”.

The record behind these values is patent US5198451A, “Heterocyclic carboxylic acids” (Novo Nordisk A/S, priority 1989, dated 1993).
